Data on four molecules can be found in patent US8486459B2 (Cremer Oleo GmbH & Co. KG, priority 2011, dated 2013).

One data set concerns Escherichia coli. The following applies: in vitro; cited from earlier work.
A further data set has as its system Pseudomonas aeruginosa. The following applies: in vitro; cited from earlier work.
The next data set relates to Staphylococcus aureus. The note with it: in vitro; cited from earlier work.
The next data set concerns Bacillus subtilis. The following applies: in vitro; cited from earlier work.
A further data set relates to Micrococcus luteus. The note with it: in vitro; cited from earlier work.
A further data set concerns Candida albicans. The following applies: in vitro; cited from earlier work.
The test system of a further data set is certain microorganisms. The experiment in a line: Comparative antimicrobial experiments, hydrogen peroxide alone vs enriched extract. It counts as cell-based. The following applies: 0.05 wt % expressed as H2O2.
The test system of data set [1] is commensal microflora in the oral cavity. The note with it: in vivo; cited from earlier work.
The subject of data set [2] is chloroquine-resistant strain K1 of Plasmodium falciparum. The note with it: in vitro; cited from earlier work.
The subject of data set [3] is L5178Y leukemia lymphoma mouse cells. The following applies: cited from earlier work.

Regarding `COc1cc(O)c(-c2c(C)cc(O)c3c2C(=O)c2cccc(O)c2C3=O)c(O)c1C(C)=O` [knipholone], the antimicrobial effect entry with Escherichia coli, with Pseudomonas aeruginosa, with Staphylococcus aureus, in the data set on Bacillus subtilis, in the data set with Micrococcus luteus and in the data set with Candida albicans was “ineffective” in each case.

In the case of `OO` [hydrogen peroxide], the antimicrobial effect result in the data set with certain microorganisms is on record as “did not yield the antimicrobial properties”. In addition, the “effect on the commensal microflora in the oral cavity” value in data set [1] is on record as “extremely harmful effect”.

As to `[H]/N=C(\N/C(=N/[H])NCCCCCCNC(=N)NC(=N)Nc1ccc(Cl)cc1)Nc1ccc(Cl)cc1` [chlorhexidine], the “effect on the commensal microflora in the oral cavity” value in [1] is “extremely harmful effect”.

`COc1cc(O)c(-c2c(C)cc(O)c3c2C(=O)c2ccc([C@H]4c5cccc(O)c5C(=O)c5c(O)cc(C)c(-c6c(O)cc(OC)c(C(C)=O)c6O)c54)c(O)c2C3=O)c(O)c1C(C)=O` [joziknipholone A]: in data set [2], the “effect against Plasmodium falciparum K1” value is “exhibited an effect”. In data set [3], the “effect against L5178Y cells” value was “moderate effect”.
